Assay results as given in patent US5523403A, “Tropone-substituted phenyloxazolidinone antibacterial agents” (The Upjohn Company, priority 1995, dated 1996).
Converted amounts (≈) assume the structure as drawn.

Columns and labels:
[1] = tested on: Staphylococcus aureus UC ® 9213; assay: in vitro antibacterial activity, Minimum Inhibitory Concentration, Staphylococcus aureus; conditions: for MIC: Staphylococcus aureus, UC9213, read-out: Minimum Inhibitory Concentration; for Minimum Inhibitory Concentration: in vitro, Staphylococcus aureus UC ® 9213
[2] = tested on: Streptococcus pyogenes UC ® 152; assay: in vitro antibacterial activity, Minimum Inhibitory Concentration, Streptococcus pyogenes; conditions: for MIC: Streptococcus pyogenes, UC152, read-out: Minimum Inhibitory Concentration; for Minimum Inhibitory Concentration: in vitro, Streptococcus pyogenes UC ® 152

Compound	MIC [1] [µg/mL]	MIC [2] [µg/mL]	Minimum Inhibitory Concentration [1] [µg/mL]	Minimum Inhibitory Concentration [2] [µg/mL]
CCOc1ccc(-c2ccc(N3CC(CNC(C)=O)OC3=O)cc2)ccc1=O (racemic) [Compound 22, (±)-N-[[3-[4-(4-ethoxy-5-oxo-1,3,6-cycloheptatrien-1-yl]phenyl]-2-oxo5-oxazolidinyl]methyl]-acetamide]	4 (≈ 10.5 µM)	0.5 (≈ 1.31 µM)	–	–
(±)-N-[[3-[4-[4-(3-amino-1-yl]phenyl]-2-oxo-5-oxazolidinyl]methyl]-acetamide [Compound 23]	–	–	16	0.25
CC(=O)NCC1CN(c2ccc(-c3ccc(N4CCN(C)CC4)c(=O)cc3)cc2)C(=O)O1 (racemic) [Compound 10, (±)-N-[[3-[4-[4-(4-methyl-1-piperazinyl)-5-oxo-1,3,6-cycloheptatrien-1-yl]phenyl]-2-oxo-5-oxazolidinyl]methyl]-acetamide]	2 (≈ 4.58 µM)	0.12 (≈ 0.275 µM)	–	–
CC(=O)NCC1CN(c2ccc(-c3ccc(OC(C)C)c(=O)cc3)cc2)C(=O)O1 (racemic) [Compound 24, (±)-N[[3-[4-[4-(1-methylethoxy)-5-oxo-1,3,6-cycloheptatrien-1-yl]phenyl]-2-oxo-5-oxazolidinyl]methyl]-acetamide]	4 (≈ 10.1 µM)	1 (≈ 2.52 µM)	–	–
CC(=O)NCC1CN(c2ccc(-c3ccc(NCCO)c(=O)cc3)cc2)C(=O)O1 (racemic) [Compound 4, (±)-N-[[3-[4-[4-[(2-hydroxyethyl)amino]-5-oxo1,3,6-cycloheptatrien-1-yl]phenyl]-2oxo-5-oxazolidinyl]methyl-acetamide]	4 (≈ 10.1 µM)	0.5 (≈ 1.26 µM)	–	–
CC(=O)NCC1CN(c2ccc(-c3ccc(N4CCNCC4)c(=O)cc3)cc2)C(=O)O1 (racemic) [Compound 12, (±)-N-[[3-[4-[4-(1-piperazinyl)-5-oxo-1,3,6-cycloheptatrien-1-yl]phenyl]-2-oxo-5-oxazolidinyl]methyl]-acetamide]	8 (≈ 18.9 µM)	0.25 (≈ 0.592 µM)	–	–
C=CCNc1ccc(-c2ccc(N3CC(CNC(C)=O)OC3=O)cc2)ccc1=O (racemic) [Compound 8, (±)-N-[[3-[4-[4-(2-propenylamino)5-oxo-1,3,6-cycloheptatrien-1-yl]phenyl]-2-oxo-5-oxazolidinyl]methyl]-acetamide]	2 (≈ 5.08 µM)	0.5 (≈ 1.27 µM)	–	–
CC(=O)NCC1CN(c2ccc(-c3ccc(N4CCN(C=O)CC4)c(=O)cc3)cc2)C(=O)O1 (racemic) [Compound 7, (±)-N-[[3-[4-[4-(4-formyl-1-piperazinyl)-5-oxo-1,3,6-cycloheptatrien-1-yl]phenyl]-2-oxo-5-oxazolidinyl]methyl]-acetamide]	4 (≈ 8.88 µM)	0.5 (≈ 1.11 µM)	–	–
CC(=O)NC[C@H]1CN(c2ccc(-c3ccc(N4CCOCC4)c(=O)cc3)c(F)c2)C(=O)O1 [Compound 36, (S)-N-[[3-[3-fluoro4[(4-morpholino)-5-oxo-1,3,6cycloheptatrien-1-yl]phenyl]-2-oxo-5oxazolidinyl]methyl]-acetamide]	2 (≈ 4.53 µM)	0.5 (≈ 1.13 µM)	–	–
CC(=O)NCC1CN(c2ccc(-c3ccc(N4CCNC(C)C4)c(=O)cc3)cc2)C(=O)O1 (racemic) [Compound 17, (±)-N-[[3-[4-[4-(3-methyl-1-piperazinyl)-5-oxo-1,3,6-cycloheptatrien-1-yl]phenyl]2-oxo-5-oxazolidinyl]methyl]-acetamide]	8 (≈ 18.3 µM)	0.25 (≈ 0.573 µM)	–	–
COC(=O)CNc1ccc(-c2ccc(N3CC(CNC(C)=O)OC3=O)cc2)ccc1=O (racemic) [Compound 30, (±)-N-[[3-[4-[-[[(methoxycarbonyl)methyl]amino]-5-oxo-1,3,6cycloheptatrien-1-yl]phenyl]-2-oxo-5-oxazolidinyl]methyl]-acetamide]	–	–	4	1
CC(=O)NC[C@H]1CN(c2ccc(-c3ccc(N4CCOCC4)c(=O)cc3)cc2)C(=O)O1 [Compound 25, (S)-N-[[3-[4[4-(4-morpholino)-5-oxo-1,3,6-cycloheptatrien-1-yl]phenyl]-2-oxo-5-oxazolidinyl]methyl]-acetamide]	2 (≈ 4.72 µM)	0.5 (≈ 1.18 µM)	–	–
COCCOc1ccc(-c2ccc(N3CC(CNC(C)=O)OC3=O)cc2)ccc1=O (racemic) [Compound 35, (±)-N-[[3-[4-[4-(2-methoxyethoxy)-5-oxo-1,3,6cycloheptatrien1-yl]phenyl)-2-oxo-5-oxazolidinyl]methyl]-acetamide]	4 (≈ 9.7 µM)	1 (≈ 2.42 µM)	–	–
